For 14 molecules, IC50 and inhibition results are on record in ChEMBL document CHEMBL4304789, “Design, Synthesis, and Biological Evaluation of 2,4-Imidazolinedione Derivatives as HDAC6 Isoform-Selective Inhibitors” (ACS Med Chem Lett, 2019).

The structures appear in SMILES notation. pIC50: −log10 of the molar value. Calls of active or inactive are those of the source. The calls are words filed in the database; no cut-off is given here.

The target of test [1] is T1, Protein deacetylase HDAC6 (Homo sapiens, UniProt Q9UBN7).
T1 sequence (Q9UBN7 whole entry): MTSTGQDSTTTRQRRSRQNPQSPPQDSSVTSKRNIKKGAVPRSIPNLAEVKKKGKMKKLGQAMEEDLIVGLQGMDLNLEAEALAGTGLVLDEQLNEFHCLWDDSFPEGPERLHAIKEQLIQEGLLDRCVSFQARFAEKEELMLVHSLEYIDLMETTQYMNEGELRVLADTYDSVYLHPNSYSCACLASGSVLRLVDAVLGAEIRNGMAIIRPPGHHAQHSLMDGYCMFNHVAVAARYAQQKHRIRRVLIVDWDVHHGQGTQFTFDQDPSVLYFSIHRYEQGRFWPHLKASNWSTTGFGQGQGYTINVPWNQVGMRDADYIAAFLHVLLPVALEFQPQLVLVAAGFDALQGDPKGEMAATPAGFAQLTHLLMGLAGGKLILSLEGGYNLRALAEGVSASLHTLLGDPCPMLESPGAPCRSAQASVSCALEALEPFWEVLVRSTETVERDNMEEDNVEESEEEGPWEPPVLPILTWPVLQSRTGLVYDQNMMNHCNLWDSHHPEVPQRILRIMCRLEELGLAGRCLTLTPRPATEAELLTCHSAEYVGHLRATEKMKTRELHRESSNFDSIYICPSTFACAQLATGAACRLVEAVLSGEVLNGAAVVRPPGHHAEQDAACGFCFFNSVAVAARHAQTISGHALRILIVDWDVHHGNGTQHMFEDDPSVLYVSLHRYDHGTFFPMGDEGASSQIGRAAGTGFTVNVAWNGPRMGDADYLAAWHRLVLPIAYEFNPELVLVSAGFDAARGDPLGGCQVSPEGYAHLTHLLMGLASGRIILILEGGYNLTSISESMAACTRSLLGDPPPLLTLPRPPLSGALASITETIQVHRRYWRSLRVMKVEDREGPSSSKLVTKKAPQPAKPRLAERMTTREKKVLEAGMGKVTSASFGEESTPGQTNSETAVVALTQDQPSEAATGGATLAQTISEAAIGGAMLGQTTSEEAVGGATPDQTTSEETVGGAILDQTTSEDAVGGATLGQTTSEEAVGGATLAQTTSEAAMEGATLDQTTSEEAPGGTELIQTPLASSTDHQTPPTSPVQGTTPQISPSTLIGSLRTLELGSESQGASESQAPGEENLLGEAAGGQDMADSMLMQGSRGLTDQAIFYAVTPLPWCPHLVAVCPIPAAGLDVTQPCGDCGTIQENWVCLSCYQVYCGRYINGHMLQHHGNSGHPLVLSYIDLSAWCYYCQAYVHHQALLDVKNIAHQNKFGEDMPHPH
Briefly: Inhibition of HDAC6 (unknown origin) using Ac-LeuGlyLys(Ac)-AMC as substrate preincubated for 5 mins followed by substrate addition and measured after 60 mins by fluorescence based assay.

In test [2] the target is Histone deacetylase (Homo sapiens) (UniProt Q13547+O15379+Q9UBN7+Q92769+Q9UQL6+Q8WUI4+Q9BY41+Q96DB2+P56524+Q9UKV0+Q969S8). The following applies: at 0.08 to 1.6 µM.
Description: Inhibition of HDAC in human HL60 cells assessed as increase in acetylation of H3 at 0.08 to 1.6 uM incubated for 24 hrs by western blot analysis

The pIC50 is the IC50 on a negative log10 scale, so that one unit is a factor of ten. With `Cc1ccc(CN2C(=O)N(C3CCCCC3)C(=O)C2CCC(=O)Nc2ccc(C(=O)NO)cc2)cc1` (centres undefined), the pIC50 in test [1] was 7.99.
The molecule `CN1C(=O)N(c2ccc(Cl)cc2)C(=O)C1CCC(=O)NCc1ccc(C(=O)NO)cc1` (centres undefined) showed a pIC50 in test [1] of 7.93.
As for `O=C(CCC1C(=O)N(c2ccc(Cl)cc2)C(=O)N1Cc1ccccc1)Nc1cccc(C(=O)NO)c1` (centres undefined), the pIC50 in test [1] is less than 7.40.
`CCCN1C(=O)N(C2CCCCC2)C(=O)C1CCC(=O)Nc1ccc(C(=O)NO)cc1` (centres undefined) gave a pIC50 in test [1] of less than 7.40.
Consider `O=C(CCC1C(=O)N(Cc2ccccc2)C(=O)N1Cc1ccc(Br)cc1)Nc1ccc(C(=O)NO)cc1` (centres undefined), for which the pIC50 in test [1] was 8.01.
For `CN1C(=O)N(c2ccc(Cl)cc2)C(=O)C1CCC(=O)Nc1ccc(C(=O)NO)cc1` (centres undefined), the pIC50 in test [1] is 8.15.
In turn, `O=C(CCC1C(=O)N(c2ccc(Cl)cc2)C(=O)N1Cc1ccc(Br)cc1)NCc1ccc(C(=O)NO)cc1` (centres undefined) showed a pIC50 in test [1] of 7.78.
On to `CCCN1C(=O)N(c2ccc(Cl)cc2)C(=O)C1CCC(=O)Nc1ccc(C(=O)NO)cc1` (centres undefined), for which the pIC50 in test [1] was 7.90.
Same read-out and setting: as for `Cc1ccc(CN2C(=O)N(c3ccc(Cl)cc3)C(=O)C2CCC(=O)Nc2cccc(C(=O)NO)c2)cc1` (centres undefined), the figure is less than 7.40; as for `O=C(CCC1C(=O)N(c2ccccc2)C(=O)N1Cc1ccc(Br)cc1)NCc1ccc(C(=O)NO)cc1` (centres undefined), 7.87; as for `O=C(CCC1C(=O)N(c2ccc(Cl)cc2)C(=O)N1Cc1ccccc1)NCc1ccc(C(=O)NO)cc1` (centres undefined), 7.90.
`Cc1ccc(CN2C(=O)N(c3ccc(Cl)cc3)C(=O)C2CCC(=O)NCc2ccc(C(=O)NO)cc2)cc1` (centres undefined): in test [1], the pIC50 is 7.72.
For `O=C(CCCCCCNC(=O)c1cnc(N(c2ccccc2)c2ccccc2)nc1)NO`, the inhibition result in test [2] is “Active”.
As to `Cc1ccc(CN2C(=O)N(C3CCCCC3)C(=O)C2CCC(=O)NCc2ccc(C(=O)NO)cc2)cc1` (centres undefined), the negative logarithm of the IC50 (pIC50) in test [1] was 7.77.
